Where “and” joins values, the source holds several entries; their conditions need not be identical. Identical values can stand only once.
Tests used:
Type in all cases: in vitro ADME
[1] = biological target: T1, CYP2C9 (Homo sapiens, UniProt P11712); experiment: Metabolic clearance rate of CK with recombinant CYP2C9 under sulfaphenazole; design: purchased Cypex Ltd. (U.K.); conditions: recombinant CYP2C9, CK 50 μM, sulfaphenazole 1 μM
Method: (§1) The method was conducted according to our previous study with some modifications. The CYP isoform-specific probe reactions used were phenacetin O-deethylation (for CYP1A2), coumarin 7-hydroxylation (for CYP2A6), tolbutamide 4-hydroxylation (for CYP2C9), metoprolol α-hydroxylation (for CYP2D6), chlorzoxazone 6-hydroxylation (for CYP2E1),S-Mephenytoin 4-hydroxylation (for CYP2C19), and midazolam 1-hydroxylation (for CYP3A4). The kinetic study of CK was conducted with HLMs. A 0.2 mL incubation mixture that consisted of CK (as a substrate), the HLMs (0.5 mg/mL) or CYP isoforms (10 pmol), and 0.1 M sodium phosphate buffer (pH 7.4) was pre-warmed for 5 min at 37°C. The reaction was initiated by the addition of 1 mg/mL triphosphopyridine nucleotide (NADPH). […]
(§2) To screen the specific CYP isoform responsible for the CK metabolism, we determined the inhibitory effect of specific inhibitors on the metabolism of CK in the HLMs as described in detail previously. […] The inhibitory effects of the above specific inhibitors on the metabolic clearance rate of CK were evaluated separately to screen the CYP isoforms responsible for the CK metabolism. The relative activity of the CYP isoforms was calculated by dividing the peak area of CK when incubated with the inhibitor by that of CK from the negative controls. […]

[2] = biological target: CYP3A4 (Homo sapiens, UniProt P08684); experiment: Effect of specific inhibitor ketoconazole on CK metabolism in HLMs; design: tissue Cypex Ltd. (U.K.); host or cells: pooled human liver microsomes; conditions: CK 50 μM, in the presence of ketoconazole 1 μM
Method: as §1, §2

[3] = biological target: T1, CYP2C9; experiment: Inhibition of CYP2C9 (tolbutamide 4-hydroxylation) by CK in HLMs; design: tissue Cypex Ltd. (U.K.); host or cells: pooled human liver microsomes
Method: The method was conducted according to our previous study with some modifications. The CYP isoform-specific probe reactions used were phenacetin O-deethylation (for CYP1A2), coumarin 7-hydroxylation (for CYP2A6), tolbutamide 4-hydroxylation (for CYP2C9), metoprolol α-hydroxylation (for CYP2D6), chlorzoxazone 6-hydroxylation (for CYP2E1),S-Mephenytoin 4-hydroxylation (for CYP2C19), and midazolam 1-hydroxylation (for CYP3A4). The kinetic study of CK was conducted with HLMs. A 0.2 mL incubation mixture that consisted of CK (as a substrate), the HLMs (0.5 mg/mL) or CYP isoforms (10 pmol), and 0.1 M sodium phosphate buffer (pH 7.4) was pre-warmed for 5 min at 37°C. The reaction was initiated by the addition of 1 mg/mL triphosphopyridine nucleotide (NADPH). All the reagents were dissolved in methanol, and the final solvent concentration in all incubations (including the controls) was 1%. The final incubations were performed in a shaking water bath (37°C) for 30 min. The reactions were stopped by adding 0.2 mL ice-cold acetonitrile, which contains irbesartan (114.9 ng/mL) as the internal standard. The samples were vortexed for 5 min. After centrifugation (12000×g for 10 min), the supernatants were transferred, and aliquots of 20 μL were injected into the HPLC-MS/MS system for analysis.
CK (10–100 μM) and a single CYP isoform-specific substrate (with a concentration similar to its corresponding Kmvalue) were used to determine the inhibitory effect of CK on specific CYP isoforms as described in detail previously. Substrates including phenacetin, coumarin, tolbutamide, metoprolol, chlorzoxazone, S-Mephenytoin, and midazolam were used at concentrations of 10, 5, 100, 7.5, 40, 100, and 5 μM, respectively. All incubation conditions were the same as mentioned above. The inhibitory effects on the CYP isoforms were investigated individually by incubating the HLMs in the absence or presence of CK. The incubation solution with the solvent that was used to dissolve CK was regarded as the negative control, and the solutions containing the specific inhibitors mentioned above were considered the positive controls.
Therefore, Dixon plots for the inhibition of CYP2C9 and CYP3A4 were determined by incubating the substrate probe at multiple concentrations with or without the test inhibitor with the HLMs and cofactors. The inhibition data obtained from the pilot experiments were used as a guide to generate the appropriate probe substrate and test inhibitor concentrations for the determination of the Ki values for each CYP isoform. The isoform-specific probe substrate concentrations used were 25–200 μM tolbutamide for CYP2C9 and 5–50 μM midazolam for CYP3A4. The CK concentrations used were 10–100 μM.
Therefore, we used S/V versus [I] plots to determine the Ki’ values for the inhibition of CYP2C9 and CYP3A4. When Ki>Ki’, the intersection was above the [I] axis in the plot of S/V against [I] and below it in the Dixon plot; the opposite was true if Ki<Ki’. In the special case where Ki = Ki’ (simple non-competitive inhibition), the intersections occurred on the [I] axis in both plots. The asymptotic cases of competitive and uncompetitive inhibition can be generated by inserting the conditions Ki’ to ∞ for competitive inhibition, or Ki to ∞ for uncompetitive inhibition.
As described in detail previously, to determine the major enzymes responsible for the CK metabolism in HLMs, the metabolic clearance rate of the incubation solution without any specific inhibitor for CK was considered as 100%. The effects of the specific inhibitors on the metabolic clearance rate of CK were evaluated with SPSS one-way analysis of variance (SPSS Inc., Chicago, IL, USA). P<0.05 was considered significant in all cases. The apparent kinetic parameters of CK (Km and Vmax) were determined by fitting the Michaelis–Menten equation using the GraphPad Prism Enzyme Kinetic 5 Demo software (GraphPad Co. Ltd, San Diego, CA, USA). […]

[4] = CYP2C9 in HLMs, sulfaphenazole values ref 15, 16

T1 sequence (P11712 whole entry, canonical isoform): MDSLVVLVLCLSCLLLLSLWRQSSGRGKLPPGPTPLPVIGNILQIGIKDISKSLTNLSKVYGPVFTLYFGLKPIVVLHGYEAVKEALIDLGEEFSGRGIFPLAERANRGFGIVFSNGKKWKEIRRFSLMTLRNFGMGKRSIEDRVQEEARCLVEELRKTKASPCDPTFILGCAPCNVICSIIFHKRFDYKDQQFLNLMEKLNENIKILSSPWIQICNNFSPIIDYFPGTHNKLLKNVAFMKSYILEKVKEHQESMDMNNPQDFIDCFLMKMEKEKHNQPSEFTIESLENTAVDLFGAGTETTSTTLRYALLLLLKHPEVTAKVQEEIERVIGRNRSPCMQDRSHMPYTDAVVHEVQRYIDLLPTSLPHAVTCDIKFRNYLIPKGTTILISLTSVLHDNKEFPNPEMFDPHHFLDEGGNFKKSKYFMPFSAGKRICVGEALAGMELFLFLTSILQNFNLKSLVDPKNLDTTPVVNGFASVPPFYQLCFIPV
CYP3A4, sequence (P08684 whole entry): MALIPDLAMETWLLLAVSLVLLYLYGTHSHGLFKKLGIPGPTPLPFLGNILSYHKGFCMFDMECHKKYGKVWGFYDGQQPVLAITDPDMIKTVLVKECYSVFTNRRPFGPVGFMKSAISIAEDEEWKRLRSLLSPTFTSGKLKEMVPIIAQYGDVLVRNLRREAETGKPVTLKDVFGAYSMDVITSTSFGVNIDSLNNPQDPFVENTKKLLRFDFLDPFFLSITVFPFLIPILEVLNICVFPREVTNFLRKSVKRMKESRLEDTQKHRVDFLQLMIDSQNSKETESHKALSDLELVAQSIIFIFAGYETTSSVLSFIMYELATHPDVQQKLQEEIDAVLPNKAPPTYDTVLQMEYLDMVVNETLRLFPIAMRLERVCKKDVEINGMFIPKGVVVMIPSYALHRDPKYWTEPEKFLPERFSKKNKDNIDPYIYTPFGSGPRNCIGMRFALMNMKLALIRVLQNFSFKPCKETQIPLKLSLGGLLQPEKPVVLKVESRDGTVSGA

CC(C)=CCC[C@](C)(OC1O[C@H](CO)[C@@H](O)[C@H](O)[C@H]1O)[C@H]1CC[C@]2(C)[C@@H]1[C@H](O)C[C@@H]1[C@@]3(C)CC[C@H](O)C(C)(C)[C@@H]3CC[C@]12C (stereo partly drawn) [CK, 20-O-β-(D-glucopyranosyl)-20(S)-protopanaxadiol]
MCR of CK, of that of the control [1]: 22.0% | metabolic clearance rate (MCR) of CK, of that of the control [2]: 74.6±28.1% and 74.6% | IC50 of CK higher than that of sulfaphenazole [3, 4]: 11-53 fold | Ki of CK higher than that of sulfaphenazole [3, 4]: 49 fold | type of inhibition of CYP2C9 ([3]; HLMs, Dixon and S/V versus [I] plots): mixed type | IC50 ([3]; HLMs, tolbutamide 4-hydroxylation, tolbutamide 100 μM, CK 10–100 μM): 16 µM | Ki ([3]; HLMs, tolbutamide 25–200 μM, secondary plot of Lineweaver–Burk slopes): 14.9 µM | inhibitor potency class for CYP2C9 ([3]; classified by IC50 according to Kong et al): moderate (moderate, if IC50 20–100 μg/mL or 10–50 μM)
